Literature values as cited in patent US20100151459A1, “MARKER FOR DETECTING THE PROPOSED EFFICACY OF TREATMENT” (priority 2007, published 2010).

Columns and labels:
[1] = tested on: acutely exacerbated schizophrenic inpatients; conditions: 18 mg/day, 3-week treatment
[2] = tested on: reserpinized (hypodopaminergic) rats

Row | SMILES | percentage improvement in other subgrouped symptoms (negative, anxiety-depression, excitement and cognitive symptoms) ([1]; between the two genotype groups) | percentage improvement in total BPRS and positive symptoms ([1]; one or two A1 alleles (n=14) vs no A1 allele (n=11)) | locomotor activity [2]
1 | CNc1cc(OC)c(C(=O)NC2CCN(Cc3ccccc3)C2C)cc1Cl (stereo not drawn) [nemonapride] | similar | significantly higher percentage improvement | –
2 | O=C1CCc2ccc(OCCCCN3CCN(c4cccc(Cl)c4Cl)CC3)cc2N1 [aripiprazole] | – | – | does not increase locomotor activity
